Laboratory results reported in publication PMC9519446, “Discovery of an Orally Active Benzoxaborole Prodrug Effective in the Treatment of Chagas Disease in Non-human Primates” (Nature microbiology, 2022).
“And” between values parts separate entries of the source, which are not always exact repeats. Equal values may be shown once. Read-outs that look alike come from different tables or passages of the source.

What was measured:
[1] = Pharmacokinetics in mice
[2] = test system: broad array of mammalian enzymes, receptors and ion channels; experiment: Preliminary safety pharmacology panel; assay type: binding
[3] = test system: T. cruzi intracellular amastigotes; experiment: In vitro anti-T. cruzi intracellular amastigote growth inhibition assay (tdTomato fluorescence over 72 hours, Vero cells); assay type: cell-based, Trypanosoma cruzi
Procedure: (§1) The in vitro anti-T. cruzi amastiogote activity assay was performed and optimized based on the protocol described previously. The change in tdTomato fluorescence intensity was determined as a measurement of growth over 72 hours of culture. For assaying drug effects on extracellular amastigotes, trypomastigotes were collected from infected Vero cell cultures and converted in acidic media as previously described. Amastigotes (50,000/well) were incubated with 2-fold serial dilutions of compounds for 48 hours. The ATP production was used as an indication of growth in this case, and was measured by ATPlite Luminescence ATP Detection Assay System (PerkinElmer). Both fluorescence and luminescence were read using a BioTek Synergy Hybrid Multi-Mode reader equipped with the software Gene5 v 2.0 (BioTek). The dose-response curve was generated by […] analysis with GraphPad Prism v9.4.0 (GraphPad Software).

[4] = test system: CPSF3-OE T. cruzi intracellular amastigotes; experiment: microbe, parasite or virus in culture; assay type: cell-based; settings: Trypanosoma cruzi, read-out: CPSF3-OE IC50, intracellular amastigotes
Procedure: as §1
The CPSF3 gene was amplified using primers ‘[…]’ and ‘[…]’, and integrated into the pTrex vector [47] by NEBuilder HiFi DNA assembly (New England Biolabs). The construct of pTrex-CPSF was then transfected into Brazil tdTomato epimastigotes and selected by 60ug/ml blasticidin.
To confirm the CPSF overexpression in the selected transfectants, RNA was extracted as previously described and converted to cDNA using SuperScript Reverse Transcriptase (Invitrogen). Quantitative PCR reactions were performed in triplicate on the C1000 Touch Bio-Rad CFX96 real-time PCR detection system for CPSF using primer sets CPSF-1 (5'-[…]-3' and 5'-[…]-3') and CPSF-2 (5'-[…]-3' and 5'-[…]-3') in both control and CPSF over-expressing parasites, and the expression level was normalized to tubulin which was amplified using primers: ‘[…]’ and ‘[…]’.

[5] = test system: representative cytochrome P450 enzymes; experiment: Cytochrome P450 inhibition; assay type: in vitro ADME; settings: 10 uM
[6] = test system: Luciferase expressing T. cruzi (Colombiana strain); experiment: Low dose short treatment (whole body bioluminescence); assay type: in vivo, Hairless mice (SKH-1)
Excerpt: Bioluminiscence signal of the whole body was measure after D-luciferin injection in a Lumina II IVIS in vivo imager equipped with the Living Imaging 4.0 software (PerkinElmer).

[7] = In vitro micronucleus study; assay type: cell-based
[8] = High dose 7-day toxicology study with exposure
[9] = test system: TcCBP KO T. cruzi intracellular amastigotes; experiment: microbe, parasite or virus in culture; assay type: cell-based; settings: Trypanosoma cruzi, read-out: TcCBP KO IC50
Procedure: as §1
The CBPs knockout was produced using ribonucleoprotein (RNP) complexes as previously described. Briefly, Brazil tdTomato strain epimastigotes were electroporated with RNP complexes containing SaCas9 and an sgRNA targeting CBP gene TcBrA4_0048170, plus a repair template containing stop codons in all three reading frames and the M13 sequence for use as a PCR anchor. The sgRNA targeted the ‘[…]” sequence. After 2 days of recovery, single-cell clones were derived by depositing epimastigotes into a 96-well plate at a density of 0.5 cell/well by using a MoFlo Astrios EQ cell sorter (Beckman Coulter). DNA isolation was performed for clones, and primer pair of 5’-[…]-3’ and 5’- […] -3’ was used for amplifying the wild type allele, while primer pair of M13-F: 5’- […] -3’ and 5’- […] -3’ was used for amplifying the mutant allele.

[10] = test system: T. cruzi Brazil strain; experiment: Mouse cure assays (daily oral treatment, immunosuppression, qPCR of skeletal muscle, blood microscopy, hemoculture); assay type: in vivo, C57BL/6 mice; settings: for Parasite equivalent/ 50 ng of DNA of skeletal muscle: individual mice; for Parasite Equivalents/50ng of DNA of skeletal muscle: individual animals
Procedure: Male or female C57BL/6 mice were intraperitoneally infected with 10^4 trypomastigotes of the Brazil strain. Mouse infection was confirmed at 25-30 dpi by detection of CD8^+ T cells specific against the T. cruzi TSKb20 peptide in blood. Compounds resuspended in 1% carboxymethyl cellulose and 0.1% Tween 80, were administered daily by gavage at the specified concentrations. In order to optimally detect persistent infection, immune responses in the mice were suppressed by intraperitoneal injection of four doses of cyclophosphamide every 2-3 days (200 mg/kg/day), beginning one week after the end of therapeutic treatment. At the end of the immunosuppression regimen, peripheral blood was checked under light microscope for parasites and cultured in LDNT media. Mouse skeletal muscle samples were obtained at the end of the immunosuppression and processed for T. cruzi-DNA detection by qPCR as previously described.

[11] = Ames study
[12] = test system: metallocarboxypeptidase 2 disrupted T. cruzi intracellular amastigote; experiment: Intracellular amastigote assay with metallocarboxypeptidase 2 (TcCLB.504045.60) disrupted T. cruzi; assay type: cell-based, Trypanosoma cruzi; settings: Fig. S1
Excerpt: activity of AN14353 on intracellular amastigote (b). Representative microphotographs of assays repeated at least three times are shown. Data are presented as mean values +/- SEM; n= 3 […]
(1 picture or pasted object on this page, not shown here)

[13] = test system: Luciferase-expressing T. cruzi (Brazil strain); experiment: In vivo killing time assay (footpad bioluminescence); parameters: species or system C57BL/6 mice; settings: for Bioluminiscence signal of the feet of mice infected with Luciferase expresssing T. cruzi: individual feet
Procedure: C57BL/6 mice were infected with 2.5x10^5 Luciferase-expressing T. cruzi (Brazil strain) in the foot pads, and two days later one oral dose of AN14353 (25 mg/kg) was administered. The bioluminescent signal in the feet after i.p. injection of D-luciferin (PerkinElmer; 250mg/kg) was measured in a Lumina II IVIS imager (PerkinElmer).

[14] = Trypanosoma cruzi, Vero, read-out: WT IC50, WT intracellular amastigotes, control of CPSF3-OE comparison
[15] = Trypanosoma cruzi, Vero, in vitro, Fig. 1a, Extended Data Fig. 1a, read-out: T. cruzi IC50
[16] = Fig. 3b, mice treated for 40 days
[17] = Fig. 3c, mice treated for 20 days

Structure (SMILES): Cc1c(C(=O)N[C@H](C(=O)OCC2CCOCC2)C(C)C)ccc2c1B(O)OC2 [AN15368]
- exposure AUC0-last ([1]; mice, 10mg/kg dose): 17.5 µg·h/kg
- minimal curative exposure in mice ([1]; mouse, in vivo, 2.5 mg/kg): 4.375 µg·h/kg
- affinity for mammalian enzymes, receptors and ion channels [2]: little to no affinity
- % of maximum ([3]; Fig 5.d, WT, [uM] 0.60): -2%
- activity at 0.6 µM ([3]; Trypanosoma cruzi, Vero, 72 h, read-out: % of maximum, Fig 5.d, WT, [uM] 0.60): -2%
- IC50 ([3]; Trypanosoma cruzi, Vero, 120 h, read-out: WT IC50, WT intracellular amastigotes, control of CPSF3 mutant comparison, Fig. 5d): 12 nM
- IC50 [3, 14]: 2.4 nM
- IC50 ([3]; Trypanosoma cruzi, Vero, read-out: WT IC50, WT intracellular amastigotes, control of TcCBP KO comparison): 2.4 nM
- IC50 [3, 15]: 5 nM
- IC50 [4]: 11.8 nM
- inhibition of representative cytochrome P450 enzymes [5]: did not demonstrate significant inhibition
- Bioluminiscence signals of mice ([6]; AN15368_2.5mg, 19 dpi): 29400000 and 22400000 and 35610000 and 24370000
- Bioluminiscence signals of mice ([6]; AN15368_5mg, 15 dpi): 8923000 and 11990000
- Bioluminiscence signals of mice ([6]; AN15368_5mg, 19 dpi): 2040000
- genotoxicity, in vitro micronucleus [7]: non-genotoxic
- dose proportionality of exposure ([8]; 7-day toxicology studies / rats): good dose proportional exposure
- NOAEL dose translated by allometric scaling ([8]; humans): 19.4 mg/kg
- NOAEL dose translated by allometric scaling ([8]; monkeys): 60.5 mg/kg
- AUC(0-t) ([8]; rat, in vivo, 120 mg/kg/day, Total plasma exposure (AUC0-24 h), rats, 120 mg/kg/day (NOAEL dose)): 30 µg·h/mL
- AUC ([8]; rat, in vivo, 600 mg/kg): 256 µg·h/mL
- NOAEL at 7 days ([8]; rat, in vivo, oral): 120 mg/kg
- microscopic findings ([8]; rats): observed microscopically in liver (dose dependent), kidney
- effects on hematology and clinical chemistry ([8]; rats, 120 mg/kg/day or lower): none
- effects on hematology and clinical chemistry ([8]; rats, 150 mg/kg): modest effects
- drug accumulation ([8]; rats, between the first and seventh days of the study): no evidence of drug accumulation
- IC50 [9]: 2500 nM
- minimal efficacious dose in mice ([10]; 40 day treatment cure assay, Fig 3e): 2.5 mg/kg
- Parasite equivalent/ 50 ng of DNA of skeletal muscle [10, 16]: 0.0182 Parasite equivalent/ 50 ng of DNA and 0.32 Parasite equivalent/ 50 ng of DNA and 0.00408 Parasite equivalent/ 50 ng of DNA and 0.015 Parasite equivalent/ 50 ng of DNA and 0.12 Parasite equivalent/ 50 ng of DNA and 0.09 Parasite equivalent/ 50 ng of DNA and 0.06 Parasite equivalent/ 50 ng of DNA
- Parasite equivalent/ 50 ng of DNA of skeletal muscle [10, 17]: 0.60 Parasite equivalent/ 50 ng of DNA and 0.12 Parasite equivalent/ 50 ng of DNA and 6.19 Parasite equivalent/ 50 ng of DNA and 0.32 Parasite equivalent/ 50 ng of DNA and 0.45 Parasite equivalent/ 50 ng of DNA
- Parasite equivalent/ 50 ng of DNA of skeletal muscle ([10]; Fig. 3e, mice treated for 40 days with 2.5 mg/kg, 2.5 mg/kg): 0.7074 Parasite equivalent/ 50 ng of DNA and 0.07409 Parasite equivalent/ 50 ng of DNA and 0.06686 Parasite equivalent/ 50 ng of DNA and 0.2452 Parasite equivalent/ 50 ng of DNA and 0.02329 Parasite equivalent/ 50 ng of DNA and 2.237 Parasite equivalent/ 50 ng of DNA and 0.1466 Parasite equivalent/ 50 ng of DNA
- outcome of cure assays ([10]; mice, Fig. 3): cures T. cruzi infection in mice
- genotoxicity, Ames [11]: non-genotoxic

Structure (SMILES): Cc1c(C(=O)NC(C(=O)OCc2ccc(F)c(F)c2)C(C)C)ccc2c1B(O)OC2 (centres unmarked) [AN14353]
- impact of metallocarboxypeptidase 2 disruption on activity [12]: Lack of impact
- oral absorption (in words) ([1]; mice, dose proportionality evaluation): solubility-limited absorption
- dose proportionality of exposure ([1]; mice, oral): lack of dose
- affinity for mammalian enzymes, receptors and ion channels [2]: little to no affinity
- IC50 [3, 14]: 0.5 nM
- IC50 [3, 15]: 6 nM
- IC50 [4]: 1.9 nM
- inhibition of representative cytochrome P450 enzymes [5]: did not demonstrate significant inhibition
- Bioluminiscence signal of the feet of mice infected with Luciferase expresssing T. cruzi ([13]; dpi 0): 38900 and 50000 and 58900 and 53200 and 27400 and 49600
- Bioluminiscence signal of the feet of mice infected with Luciferase expresssing T. cruzi ([13]; dpi 6): 16800 and 26800 and 41700 and 19800 and 27400 and 55100
- Bioluminiscence signal of the feet of mice infected with Luciferase expresssing T. cruzi ([13]; dpi 12): 53200 and 26000 and 25400 and 27200 and 20400 and 32200
- Bioluminiscence signal of the feet of mice infected with Luciferase expresssing T. cruzi ([13]; dpi 24): 28700 and 38600 and 17100 and 17600 and 12200 and 16200
- Bioluminiscence signal of the feet of mice infected with Luciferase expresssing T. cruzi ([13]; dpi 30): 38600 and 26900 and 29300 and 28500 and 15800 and 33500
- Bioluminiscence signal of the feet of mice infected with Luciferase expresssing T. cruzi ([13]; dpi 48): 13500 and 15700 and 12600 and 12800 and 9070 and 11900
- Bioluminiscence signal of the feet of mice infected with Luciferase expresssing T. cruzi ([13]; dpi 72): 90400 and 76200 and 47100 and 14600 and 38700 and 41000
- in vivo trypanocidal activity (killing time) ([13]; single oral dose 25 mg/kg): rapid in vivo trypanocidal activity
- genotoxicity, in vitro micronucleus [7]: non-genotoxic
- outcome of cure assay ([10]; 25 mg/kg, 40 day treatment, wild-type mice and immunodeficient mice): could consistently resolve established T. cruzi infections
- Parasite equivalent/ 50 ng of DNA of skeletal muscle [10, 16]: 0.00339 Parasite equivalent/ 50 ng of DNA and 0.0112 Parasite equivalent/ 50 ng of DNA and 0.00674 Parasite equivalent/ 50 ng of DNA and 0.0326 Parasite equivalent/ 50 ng of DNA and 0.00218 Parasite equivalent/ 50 ng of DNA and 6.96e-5 Parasite equivalent/ 50 ng of DNA and 0.03 Parasite equivalent/ 50 ng of DNA
- Parasite equivalent/ 50 ng of DNA of skeletal muscle [10, 17]: 3.39 Parasite equivalent/ 50 ng of DNA and 0.89 Parasite equivalent/ 50 ng of DNA and 0.07 Parasite equivalent/ 50 ng of DNA and 1.14 Parasite equivalent/ 50 ng of DNA and 0.69 Parasite equivalent/ 50 ng of DNA and 1.27 Parasite equivalent/ 50 ng of DNA
- Parasite Equivalents/50ng of DNA of skeletal muscle ([10]; IFNg KO mice): 0.000877 Parasite Equivalents/50ng of DNA and 0.0011 Parasite Equivalents/50ng of DNA and 0.000197 Parasite Equivalents/50ng of DNA and 0.013 Parasite Equivalents/50ng of DNA and 0.002 Parasite Equivalents/50ng of DNA and 0.00327 Parasite Equivalents/50ng of DNA and 0.004 Parasite Equivalents/50ng of DNA and 0.00265 Parasite Equivalents/50ng of DNA and 0.000622 Parasite Equivalents/50ng of DNA
- Parasite Equivalents/50ng of DNA of skeletal muscle ([10]; mice, 10 mg/kg): 0.00752 Parasite Equivalents/50ng of DNA and 0.05 Parasite Equivalents/50ng of DNA and 0.00 Parasite Equivalents/50ng of DNA
- Parasite Equivalents/50ng of DNA of skeletal muscle ([10]; mice, 25 mg/kg): 0.00369 Parasite Equivalents/50ng of DNA and 0.00 Parasite Equivalents/50ng of DNA and 0.00185 Parasite Equivalents/50ng of DNA and 0.0154 Parasite Equivalents/50ng of DNA
- genotoxicity, Ames [11]: non-genotoxic
